From US10329354B2, “Modulation of efferocytosis pathways for treatment of atherosclerotic disease” (The Board of Trustees of the Leland Stanford Junior …, priority 2013, dated 2019) come the findings set out here.

“Also recorded” adds a separate entry of the source.

One experiment has as its system CDKN2B-deficient SMCs. As to the kind of experiment: Phagocytosis of CDKN2B-deficient SMCs by macrophages with anti-CD47 Ab. Format: cell-based. The settings on record: FIG. 12. An excerpt: Implicating Cdkn2b in “efferocytosis”— the phagocytic clearance of apoptotic debris: an increase in the rate at which apoptotic debris was produced in this chronic disease model could not be observed (P=NS for TUNEL and Caspase assays at both Week 4 and Week 12). It was reasoned that loss of Cdkn2b might regulate the rate at which apoptotic debris is cleared in the developing atherosclerotic plaque. This process, known as “efferocytosis” (from the Greek meaning to carry the dead to the grave), was assessed with established in vitro flow cytometry-based co-culture phagocytosis assays.

The subject of the next experiment is CALR promoter. As to the kind of experiment: CALR luciferase promoter reporter assay with TGF-β. The settings on record: control-transfected HEK cells, TGFβ-1 0.5-10 ng/mL, 16 hours. Format: cell-based, human. How it is done: Calreticulin LightSwitch Promoter Reporter GoClones (RenSP, S721464), Empty vectors (S790005) and Cypridina TK Control constructs (pTK-Cluc, SN0322S) were obtained from SwitchGear Genomics (Menlo Park, Calif.) and transfected into HEK cells using Lipofectamine 2000 (Invitrogen). For knockdown assays, 5 pmol of anti-CDKN2B or control siRNA were co-transfected. For overexpression, CDKN2B (sc319536) and Rb expression plasmid (sc119971) and empty vector (pCMV6) were obtained from Origene and 100 ng of plasmid were co-transfected. Dual luciferase activity was measured with the LightSwitch Dual Assay System after 48 hours using a SpectraMax L luminometer (Molecular Devices), according to the manufacturer's instructions. In some experiments, media was changed to serum-free media after 24 hours of transfection. Studies were performed at baseline, and after the cells had been exposed to escalating doses of recombinant human TGFβ-1 (from Sigma, 0.5-10 ng/mL) for the final 16 hours prior to analysis. Relative luciferase activity (Renilla/Cypridina luciferase ratio) is expressed as the percentage change relative to the basal values obtained from control-transfected cells not exposed to TGF-β treatment.

Another experiment concerns CDKN2B. Put plainly: CDKN2B expression in untransfected HCASMC after exogenous TGF-β. Format: cell-based, human. The settings on record: FIG. 9B. How it is done:
Human coronary artery SMC (HCASMC, Lonza, Walkersville, Md., passage #3-6) were propagated in SmGM-2 growth media (Lonza) containing 5% FBS. Human THP-1 monocytic cells, human embryonic kidney (HEK-293) and RAW 264.7 macrophages (ATCC) were grown in DMEM-growth media containing 10% FBS. Primary vascular smooth muscle cells were harvested from the aortas of Cdkn2b^+/+ and Cdkn2b^−/− mice, as previously described. Primary activated macrophages were harvested from mice 72 hrs after intraperitoneal injection of 2 ml of 4% thioglycollate, as previously described. To induce growth arrest and the expression of differentiation genes, SMC were serum starved in basal media (SmBM) for 72 hours, according to conventional protocols.
PCR RNA was isolated from cell lysates using the miRNeasy Mini Kit (Qiagen, Valencia, Calif.) according to the manufacturer's protocol. RNA was isolated from the murine organ samples using the Trizol method (Invitrogen). RNA was quantified with the Nanodrop machine ([…], Santa Clara, Calif.) For quantitation of gene transcription, cDNA was generated with M-MuLV reverse transcriptase, and then amplified on the ABI PRISM 7900HT with commercially available TaqMan primers (Applied Biosystems, Foster City, Calif.) and normalized to 18S internal controls, as previously described. A list of the primers and probes used in these studies is provided in below.

Regarding “Hu5F9-G4: humanized anti-CD47 mAb engineered by CDR grafting of mouse sequences into a human IgG4 framework”, the “increase in phagocytosis of SMCs by Mϕ's” value with CDKN2B-deficient SMCs (CDKN2B-deficient SMCs) was ~72%. For the same substance, in the experiment on CDKN2B-deficient SMCs, the “phagocytosis of CDKN2B-deficient SMCs by macrophages” value is given as “enables macrophages to phagocytose”.

With “TGF-β: recombinant human TGFβ-1 (from Sigma)”, in the experiment on CALR promoter, the “CALR expression (promoter reporter activity)” value is “increased in response to TGF-β treatment in a dose-dependent manner; also recorded: increased by TGF-β in a dose-dependent manner”. Besides, the CDKN2B expression entry in the experiment with CDKN2B is on record as “increased their expression of CDKN2B”.
